Experimental data: article PMC7380166, “How to Study the Metabolism of New Psychoactive Substances for the Purpose of Toxicological Screenings—A Follow-Up Study Comparing Pooled Human Liver S9, HepaRG Cells, and Zebrafish Larvae” (Frontiers in Chemistry, 2020)
Where two headings read alike, the source gives them in different places.

How the values were obtained:
[1] = after subcutaneous administration of 1P-LSD to rats; ref Halberstadt et al., [2019]; cited from earlier work
[2] = cited from earlier work; for Detection in serum and urine samples of an intoxicated patient: after assumed consumption of a blotter containing 1P-LSD, ref Grumann et al., [2019]
[3] = ref Wagmann et al., cited from earlier work; for Detection in pHLS9 [25 µM]: n = 2, according to literature
HepaRG cells = test: Incubations with HepaRG cells, metabolite identification by LC-HRMS/MS; type: in vitro ADME, human; conditions: for Absolute peak area, HepaRG [25 μM]: 25 μM parent NPS; for Absolute peak area, HepaRG [25 μM] / Absolute peak area, HepaRG [250 μM] / Number of phase I metabolites detected, HepaRG [25 μM] / Number of phase II metabolites detected, HepaRG [25 μM] / Number of phase I metabolites detected, HepaRG [250 μM] / Number of phase II metabolites detected, HepaRG [250 μM]: 24 h; for Absolute peak area, HepaRG [25 μM] / Absolute peak area, HepaRG [250 μM]: cell culture medium, one replicate of n = 3, n.d. = not detected; for Absolute peak area, HepaRG [250 μM]: 250 μM parent NPS
zebrafish larvae [4] = test: Zebrafish larvae exposure, metabolite identification by LC-HRMS/MS; conditions: for Absolute peak area, Zebrafish larvae [100 µM]: 100 µM parent NPS in medium, larvae 4 dpf, larvae extract, one replicate of n = 3, n.d. = not detected; for Absolute peak area, Zebrafish larvae [100 µM] / Number of phase I metabolites detected, Zebrafish larvae / Number of phase II metabolites detected, Zebrafish larvae: 24 h; for Number of phase I metabolites detected, Zebrafish larvae / Number of phase II metabolites detected, Zebrafish larvae: 100 μM in medium
monooxygenases = conditions: initial monooxygenases activity screenings described elsewhere; ref Caspar et al., [2018a]; Wagmann et al., [2019b],[c]; cited from earlier work
zebrafish larvae [5] = test: In vivo maximum-tolerated concentration (MTC) study in zebrafish larvae; set-up: species or system zebrafish (Danio rerio); conditions: for Survival rate / Survival rates for all tested concentrations / Malformations: larvae 4 dpf; for Survival rate: 24-h treatment, fifteen larvae; for Survival rates for all tested concentrations: 0.01 to 100 μM; for Survival rates for all tested concentrations / Malformations: 24 h; for Concentration considered non-toxic for zebrafish larvae (4 dpf): 24 h exposure via medium; for Malformations: up to 100 μM
Procedure: Internal protocols based on published standard methods (Westerfield, [2007]) were used to perform zebrafish husbandry and the maximum-tolerated concentration (MTC) testing was based on a previous study (Richter et al., [2019a]). Danieau's medium [17 mM NaCl, 2 mM KCl, 0.12 mM MgSO4, 1.8 mM Ca(NO3)2, 1.5 mM HEPES, pH 7.1–7.3, and 1.2 μM methylene blue] at 28°C was used to raise zebrafish larvae of the AB wild-type strain. For MTC testing, 96-well plates were used with 100 μl of medium and one larva per well. Drug exposition was started 4 dpf using 0, 0.01, 0.1, 1, 10, 50, or 100 μM final concentrations of 3,4-DMA-NBOMe, ephylone, 4F-MDMB-BINACA, 4F-PHP, or 1P-LSD, respectively. The drug exposure in the incubator at 28°C lasted 24 h. The final DMSO concentration was 1% (v/v) for all experiments. Monitoring of the larvae was done using a LEICA M205 FA stereo microscope (Leica Mikrosysteme Vertrieb GmbH, Wetzlar, Germany) to detect developmental defects and/or decreased survival rates. Fifteen larvae were used for each experiment.

[6] = Incubations with pooled human liver S9 fraction (pHLS9), metabolite identification by LC-HRMS/MS; type: in vitro ADME; conditions: human data for ephylone and 4F-PHP from Wagmann et al., [2019b]
Procedure: According to published procedures (Richter et al., [2017b], [2019b]; Caspar et al., [2018b]; Wagmann et al., [2019b],[c]), the final incubation volume per reaction tube was 150 μl, with a final protein concentration of 2 mg/ml. The given concentrations represent final concentrations. A preincubation for 10 min at 37°C with UGT reaction mixture solution B (containing alamethicin, 25 μg/ml), MgCl2 (2.5 mM), NADP^+ (0.6 mM), isocitrate (2.5 mM), isocitrate dehydrogenase (0.8 U/ml), superoxide dismutase (100 U/ml), acetyl coenzyme A (0.1 mM), phosphate buffer (90 mM, pH 7.4), and pHLS9 (2 mg/ml) was done. Afterwards, UGT reaction mixture solution A (containing UDP glucuronic acid, 2.5 mM), PAPS (40 μM), SAM (1.2 mM), dithiothreitol (1 mM), and glutathione (10 mM) were added, as well as 25 μM 4F-MDMB-BINACA to start the reactions. The mixture was incubated for 360 min. Total amount of organic solvent in incubation mixtures was <2% (Chauret et al., [1998]). After 60 min, an aliquot of the reaction mixture (60 μl) was transferred in another reaction tube containing 20 μl of ice-cold acetonitrile to terminate the reactions. The remaining aliquot (90 μl) was incubated for an additional 300 min, and then the reactions were stopped by adding 30 μl of ice-cold acetonitrile. Thereafter, the reaction tubes were cooled at −20°C for 30 min prior to centrifugation at 18,407 × g for 2 min. The supernatants (50 μl) were transferred into autosampler vials, and 1 μl was injected onto the LC-HRMS/MS system. Control samples without pHLS9 and blank samples without substrate were prepared to confirm the absence of non-metabolically formed and interfering compounds, respectively. All incubations were performed in duplicate.
According to a previous study (Richter et al., [2019a]), a Thermo Fisher Scientific (TF, Dreieich, Germany) Dionex UltiMate 3000 Rapid Separation (RS) UHPLC system with a quaternary UltiMate 3000 RS pump and an UltiMate 3000 RS autosampler controlled by the TF Chromeleon software version 6.8 was used. The LC system was coupled to an Orbitrap-based TF Q-Exactive Plus equipped with a heated electrospray ionization II (HESI-II) source. Calibration was done prior to analysis with a Positive Cal Mix (Supelco, Bellefonte, PA, USA) at a flow rate of 3 μl/min using a syringe pump. The conditions of the LC system were as follows: TF Accucore PhenylHexyl column (100 × 2.1 mm, 2.6 μm particle size); gradient elution with 2 mM ammonium formate solution containing 0.1% (v/v) formic acid (eluent A) and 2 mM ammonium formate solution in acetonitrile/methanol (50:50, v/v) containing 0.1% (v/v) formic acid, and 1% (v/v) water (eluent B). […] The following gradient was used: 0–1.0 min hold 1% B, 1–10 min to 99% B, 10–11.5 min hold 99% B, 11.5–13.5 min hold 1% B. The HESI-II source conditions were as follows: ionization mode, positive; heater temperature, 320°C; ion transfer capillary temperature, 320°C; sheath gas, 60 arbitrary units (AU); auxiliary gas, 10 AU; spray voltage, 4.00 kV; and S-lens RF level, 50.0. Mass spectrometry experiments were performed using high-resolution (HR) full scan mode and a targeted MS^2 mode with an inclusion list for each NPS. The inclusion list contained m/z values of metabolites, which were likely to be formed for example hydroxy, oxo, carboxy, dealkyl, demethylenylated, and defluorinated metabolites (phase I) as well as sulfates and glucuronides (phase II) and combinations of them. Full scan settings were as follows: resolution, 35,000; automatic gain control (AGC) target, 3e6; maximum injection time (IT), 120 ms; scan ranges, 3,4-DMA-NBOMe m/z 100–700, ephylone m/z 200–600, 4F-MDMB-BINACA m/z 150–700, 4F-PHP m/z 200–600, and 1P-LSD m/z 250–700. The settings for the targeted MS^2 mode with the respective inclusion lists were as follows: resolution, 17,500; AGC target, 2e5; maximum IT, 250 ms; loop count, 5; isolation window, 1.0 m/z; stepped normalized collision energy (NCE), 17.5, 35, 52.5%; pick others, enabled. […]

[7] = plasma, human data for ephylone and 4F-PHP from Wagmann et al., [2019b]
[8] = urine, human data for ephylone and 4F-PHP from Wagmann et al., [2019b]

For CCN(CC)C(=O)[C@@H]1C=C2c3cccc4[nH]cc(c34)C[C@H]2N(C)C1 [ML7, LSD], the “Detection in rat plasma” value [1] is given as “able to detect”, the “Detection in serum and urine samples of an intoxicated patient” value [2] is given as “able to find” and the “Detection in pHLS9 [25 µM]” value ([3]; 1P-LSD and metabolites, 2019b) is given as “+”. The “Absolute peak area, HepaRG [25 μM]” value (HepaRG cells) was 8.59E+08, the “Absolute peak area, HepaRG [250 μM]” value (HepaRG cells) was 5.95E+09 and the “Absolute peak area, Zebrafish larvae [100 µM]” value (from here on “Absolute peak area … [100 µM]”) (zebrafish larvae [4]) was 1.25E+09.

In the case of CCCC(NCC)C(=O)c1ccc2c(c1)OCO2 (stereo not shown) [Ephylone, N-ethylnorpentylone], the “Monooxygenases involved in metabolism” value (monooxygenases) is given as “CYP1A2, CYP2B6, CYP2C19, and CYP3A4”, the “Signals with the highest abundance in human plasma and/or urine” value ([2]; human biosamples after intake of ephylone and 4F-PHP, ref Wagmann et al., [2019b]) is given as “highest ephylone-related signals” and the Survival rate (zebrafish larvae [5]; 0.01 μM) is given as 100%. The Survival rate (zebrafish larvae [5]; 0.1 μM) was 100%, the Survival rate (zebrafish larvae [5]; 1 μM) was 100% and the Survival rate (zebrafish larvae [5]; 10 μM) was 100%. For the same compound, the Survival rate (zebrafish larvae [5]; 50 μM) was 100%, the Survival rate (zebrafish larvae [5]; 100 μM) was 100% and the “Survival rates for all tested concentrations” value (zebrafish larvae [5]) was 100%. For the same compound, the “Concentration considered non-toxic for zebrafish larvae (4 dpf)” value (zebrafish larvae [5]) was 100 µM, the Malformations (zebrafish larvae [5]) was “no malformations” and the “Number of phase I metabolites detected, pHLS9 [25 μM]” value ([3]; [2019b]) was 5 (Wagmann et al., [2019b]). The “Number of phase II metabolites detected, pHLS9 [25 μM]” value ([3]; [2019b]) was 8 (Wagmann et al., [2019b]), the “Detection in pHLS9 [25 µM]” value ([3]; ephylone and metabolites, 2019a) was “+” and the “Absolute peak area, HepaRG [25 μM]” value (HepaRG cells) was 6.38E+08. The “Number of phase I metabolites detected, HepaRG [25 μM]” value (HepaRG cells) was 2, the “Number of phase II metabolites detected, HepaRG [25 μM]” value (HepaRG cells) was 4 and the “Absolute peak area, HepaRG [250 μM]” value (HepaRG cells) was 3.94E+09. The “Number of phase I metabolites detected, HepaRG [250 μM]” value (HepaRG cells) was 4, the “Number of phase II metabolites detected, HepaRG [250 μM]” value (HepaRG cells) was 6 and the “Relative number of matches with the four most abundant signals in human plasma, HepaRG [25 μM]” value (HepaRG cells; [7]) was 75%. For the same compound, the “Relative number of matches with the four most abundant signals in human plasma, HepaRG [250 μM]” value (HepaRG cells; [7]) was 100%, the “Relative number of matches with the four most abundant signals in human urine, HepaRG [25 μM]” value (HepaRG cells; [8]) was 75% and the “Relative number of matches with the four most abundant signals in human urine, HepaRG [250 μM]” value (HepaRG cells; [8]) was 100%. For the same compound, the “Number of phase I metabolites detected, Zebrafish larvae” value (zebrafish larvae [4]) was 5, the “Number of phase II metabolites detected, Zebrafish larvae” value (zebrafish larvae [4]) was 4 and the “Absolute peak area … [100 µM]” value (zebrafish larvae [4]) was 3.57E+09. The “Relative number of matches with the four most abundant signals in human plasma, Zebrafish larvae” value (zebrafish larvae [4]; plasma, larvae exposed to 100 μM, human data from Wagmann et al., [2019b]) was 100%, the “Relative number of matches with the four most abundant signals in human urine, Zebrafish larvae” value (zebrafish larvae [4]; urine, larvae exposed to 100 μM, human data from Wagmann et al., [2019b]) was 100% and the “Relative number of matches with the four most abundant signals in human plasma, pHLS9 [25 μM]” value ([6]; plasma) was 100%. The “Relative number of matches with the four most abundant signals in human urine, pHLS9 [25 μM]” value ([6]; urine) was 100%.

In the case of CCC(=O)n1cc2c3c(cccc31)C1=C[C@@H](C(=O)N(CC)CC)CN(C)[C@@H]1C2 [Metabolite 1P-LSD, 1-propionyl-d-lysergic acid diethylamide], the “Detection in rat plasma” value [1] is given as “able to detect”, the “Monooxygenases involved in metabolism” value (monooxygenases) is given as “N-dealkylated and hydroxylated exclusively by CYP3A4” and the “Detection in serum and urine samples of an intoxicated patient” value [2] is given as “could not be detected”. It also gave a Survival rate (zebrafish larvae [5]; 0.01 μM) of 100%, a Survival rate (zebrafish larvae [5]; 0.1 μM) of 100% and a Survival rate (zebrafish larvae [5]; 1 μM) of 100%. It also gave a Survival rate (zebrafish larvae [5]; 10 μM) of 100%, a Survival rate (zebrafish larvae [5]; 50 μM) of 100% and a Survival rate (zebrafish larvae [5]; 100 μM) of 100%. For the same compound, the “Survival rates for all tested concentrations” value (zebrafish larvae [5]) was 100%, the “Concentration considered non-toxic for zebrafish larvae (4 dpf)” value (zebrafish larvae [5]) was 100 µM and the Malformations (zebrafish larvae [5]) was “no malformations”. For the same compound, the “Number of phase I metabolites detected, pHLS9 [25 μM]” value ([3]; [2019c]) was 8 (Wagmann et al., [2019c]), the “Number of phase II metabolites detected, pHLS9 [25 μM]” value ([3]; [2019c]) was 0 (Wagmann et al., [2019c]) and the “Detection in pHLS9 [25 µM]” value ([3]; 1P-LSD and metabolites, 2019b) was “+”. For the same compound, the “Absolute peak area, HepaRG [25 μM]” value (HepaRG cells) was 3.60E+07, the “Number of phase I metabolites detected, HepaRG [25 μM]” value (HepaRG cells) was 14 and the “Number of phase II metabolites detected, HepaRG [25 μM]” value (HepaRG cells) was 1. The “Absolute peak area, HepaRG [250 μM]” value (HepaRG cells) was 5.41E+06, the “Number of phase I metabolites detected, HepaRG [250 μM]” value (HepaRG cells) was 15 and the “Number of phase II metabolites detected, HepaRG [250 μM]” value (HepaRG cells) was 2. The “Number of phase I metabolites detected, Zebrafish larvae” value (zebrafish larvae [4]) was 22, the “Number of phase II metabolites detected, Zebrafish larvae” value (zebrafish larvae [4]) was 3 and the “Absolute peak area … [100 µM]” value (zebrafish larvae [4]) was 2.92E+09.
